Reference: patent publication US8445502B2, “Pharmaceutical formulations comprising salts of a protein kinase inhibitor and methods of using same” (Astex Pharmaceuticals, Inc., priority 2007, dated 2013)

What was measured:
[1] = both, beagle, dog, in vivo, 5 days
Protocol: In the first study, 2 doses of MP470 were tested, a low dose of 10 mg/kg followed 48 hours later by a dose of 20 mg/kg. Dosage escalation stopped after the 20 mg/kg dose due to observations of adverse clinical signs. After the second dose, the animals were observed everyday for 3 additional days for adverse clinical signs. Over the course of the 5 days of study both dogs gained weight. […] The female dog experienced retching immediately after dosing. Upon administration of the 20 mg/kg dose both the female and male dog experienced unacceptable adverse effects. After three more days of observation both dogs were euthanized and necropsy was performed. The necropsy observations considered abnormal include thrombus observed in the dosing veins of both dogs and possible mild venous congestion in the meningeal vein between brain hemispheres and in the venous sinus on cranial floor of the male animal. From this study the maximally tolerated dose in beagle dogs was determined to be 20 mg/kg.

[2] = 28-day chronic oral tolerability and toxicokinetics in dog; format: in vivo; settings: for mean liver weights compared with the control group / mean liver weights relative to brain weights compared with the control group: dosing period; for mean heart weights relative to body weight compared with the control group: recovery period; for AUC / Cmax / half-life: po
Protocol: In a chronic tolerability study of MP470 hydrochloride salt in the dog, groups of six male and six female dogs received 0, 30, 100, or 300 mg/kg/day of the test article (Groups 1-4, respectively) for 28 days. MP470.HCl was administered, by capsule, as a dry powder blend with sodium lauryl sulfate. […] In males, increased incidences of emesis and soft feces/diarrhea for Groups 3-4 and discolored and mucoid feces for Groups 2-4 were observed. In females, increased incidences of emesis and mucoid feces for Group 4, increased incidences of soft feces/diarrhea for Groups 3-4, and discolored feces for Groups 2-4 were noted. These clinical abnormalities were not considered adverse. No test article-related effects on body weight or food consumption were observed during the dosing or recovery periods. No test-article related lesions were noted during ophthalmic examinations and all electrocardiograms of the test and control animals were within normal limits. No test article related effects on hematology or urinalysis parameters were observed during the dosing or recovery periods.
Test article related effects on clinical chemistry parameters during the dosing period were limited to lower mean serum aspartate aminotransferase (75%) and plasma thyroxine (50%) levels for the Group 4 males when compared with the control group. […] Test article related organ weight changes during the recovery period were limited to statistically lower mean heart weights relative to body weight for the Group 3-4 females (85 and 89%, respectively) when compared with the control group.
There was adequate systemic exposure, in general plasma concentration of the test article increased relatively rapidly after treatment, followed by a steady decline for all dose groups and both sexes. Systemic exposure to the test article, as measured by Cmax and AUC, increased with increasing dose in both sexes, but the increase was generally less than dose proportional. No significant differences in exposure to the test article were observed between male and female dogs. No accumulation of the drug was evident as measured by difference in exposure between day 0 and day 27. The time to reach maximal plasma concentration (t-max) ranged from 2-4 hours for Groups 2 and 3 and ranged from 2-8 hours for Group 4. The terminal half-lives varied widely and ranged from 7-84.7 hours for Group 2, 16-47.7 hours for Group 3 and 10.5-28 hours for Group 4. […] There was a large variability in exposure.
A NOEL could not be determined; the no-observed-adverse-effect level (NOAEL) was considered to be 300 mg/kg/day (6000 mg/m2/d) for both sexes. A STD could not be calculated in this study and is likely to be higher than 300 mg/kg/day (6000 mg/m2/d).

[3] = both, Sprague Dawley, rat, in vivo, 72 h
Protocol: Four groups of Sprague Dawley rats, each consisting of two males and two females, received escalating single doses of 100, 200, 800 and 2000 mg/kg of the test article. MP470.HCl was suspended in an aqueous vehicle constituting 0.5% w/v carboxymethylcellulose and administered by oral gavage. […] Doses were based on body weights on the day of dosing. The animals were euthanized after the last observation. […] A single oral dose no-observed-effect level (NOEL) was 2000 mg/kg. Acute maximum tolerated dose (MTD) was greater than 2000 mg/kg (highest dose tested).

[4] = test system: OVCAR-3 ovarian cancer cells; assay: OVCAR-3 ovarian cancer tumor model in nude mice; format: in vivo
Protocol: MP470 and MP470 HCl were tested against different tumor types in athymic nude mice as summarized below (Table 8). Various formulations and routes were evaluated. HT-29 colorectal cancer cells and SB-CL2 melanoma cells were implanted subcutaneously, while A549 lung cancer cells, MiaPaCa-2 pancreatic cancer cells, TT medullary thyroid cancer cells, and OVCAR-3 ovarian cancer cells were implanted […] in the hind flank of mice. All animals were allowed to develop medium-sized (80-125 mg) tumors, before initiation of dosing. Tumor volume and mouse bodyweight were followed over the course of the study.
OVCAR-3 Ovarian Cancer Model—Forty-two nude mice were implanted subcutaneously with OVCAR-3 ovarian carcinoma, the hydrochloride salt of MP470 (MP470.HCl) was formulated in 100% corn oil and delivered orally. MP470.HCl, cisplatin, and irinotecan were administered to animals alone or in combination. When administered alone, MP470.HCl was given qd at 100 or 200 mg/kg, irinotecan was given q3d at 20 mg/kg, and cisplatin was given q7d at 5 mg/kg. In combination studies, 100 mg/kg MP470.HCl was given qd and combined with 20 mg/kg irinotecan given q3d or 5 mg/kg cisplatin given q7d. One animal in the 200 mg/kg MP470.HCl group died on Day 1, while five animals in the MP470.HCl/cisplatin combination group died (one on Day 5, Day 6, Day 7, Day, 20, and Day 27). Treatment with each individual agent (200 mg/kg MP470.HCl, 46.2 mm3/d; 20 mg/kg irinotecan, 38.53 mm3/d; 5 mg/kg cisplatin, 33.8 mm3/d) reduced the tumor growth rate below that of vehicle-treated mice (78.04 mm3/d). […] In contrast, when MP470.HCl and cisplatin were used in combination, the tumor growth rate was reduced to 10.22 mm3/d. However, the 100 mg/kg dose of MP470.HCl in combination with cisplatin caused enhanced toxicity and most animals in this group died during the 21-day treatment period. The enhanced toxicity was related to the level of the dose used, so a subsequent study was conducted using half the dose, 50 mg/kg/day as described below.

[5] = Group 3 females (100 mg/kg/day)
[6] = Group 4 females (300 mg/kg/day)
[7] = both sexes, beagle, dog, in vivo, 30 mg/kg/day
[8] = both sexes, beagle, dog, in vivo, 100 mg/kg/day
[9] = both sexes, beagle, dog, in vivo, 300 mg/kg/day

**Q.** With S=C(NCc1ccc2c(c1)OCO2)N1CCN(c2ncnc3c2oc2ccccc23)CC1 [MP470, 4-[1]benzofuro[3,2-d]pyrimidin-4-yl-N-(1,3-benzodioxol-5-ylmethyl)piperazine-1-carbothioamide] as the molecule, how does the maximally tolerated dose [1] read?
**A.** The maximally tolerated dose was 20 mg/kg.

**Q.** What does the source list for Cl.S=C(NCc1ccc2c(c1)OCO2)N1CCN(c2ncnc3c2oc2ccccc23)CC1 [MP470.HCl, 4-[1]benzofuro[3,2-d]pyrimidin-4-yl-N-(1,3-benzodioxol-5-ylmethyl)piperazine-1-carbothioamide hydrochloride]?
**A.** mean liver weights compared with the control group ([2]; Group 2 females (30 mg/kg/day)): 124%; mean liver weights relative to brain weights compared with the control group ([2]; Group 2 females (30 mg/kg/day)): 117%; mean liver weights compared with the control group [2, 5]: 123%; mean liver weights relative to brain weights compared with the control group [2, 5]: 121%; mean heart weights relative to body weight compared with the control group [2, 5]: 85%; mean liver weights compared with the control group [2, 6]: 119%; mean liver weights relative to brain weights compared with the control group [2, 6]: 120%; mean heart weights relative to body weight compared with the control group [2, 6]: 89%; NOAEL at 28 days ([2]; beagle, dog, in vivo, dogs, both sexes, 28 days, read-out: no-observed-adverse-effect level (NOAEL)): 300 mg/kg/day; AUC [2, 7]: 97.9 to 1130 ng·h/mL; Cmax [2, 7]: 42.5 to 154 ng/mL; half-life [2, 7]: 7 to 84.7 h; AUC [2, 8]: 257 to 2530 ng·h/mL; Cmax [2, 8]: 78.3 to 231 ng/mL; half-life [2, 8]: 16 to 47.7 h; AUC [2, 9]: 559 to 4890 ng·h/mL; Cmax [2, 9]: 192 to 329 ng/mL; half-life [2, 9]: 10.5 to 28 h; STD (severely toxic dose) ([2]; both, beagle, dog, in vivo, 28 days): > 6000 mg/m2/d; mortalities ([2]; dogs, 30, 100 or 300 mg/kg/day by capsule, 28 days): no mortalities; time to reach maximal plasma concentration (t-max) ([2]; dogs, Group 4 (300 mg/kg/day)): 2 to 8 h; time to reach maximal plasma concentration (t-max) ([2]; dogs, Groups 2 and 3 (30 and 100 mg/kg/day)): 2 to 4 h; no-observed-adverse-effect level (NOAEL) ([2]; dogs, both sexes, 28 days): 6000 mg/m2/d; single oral dose no-observed-effect level (NOEL) [3]: 2000 mg/kg; Acute maximum tolerated dose (MTD) ([3]; po): greater than 2000 mg/kg; animals that died ([4]; 200 mg/kg MP470.HCl group, Day 1): One; tumor growth rate ([4]; 200 mg/kg qd oral in corn oil (vehicle 78.04)): 46.2 mm3/d; Outcome: tumor growth ([4]; OVCAR-3, PO 100 or 200 mg/kg, qd × 28, corn oil, hydrochloride): Dose dependency
